From ChEMBL document CHEMBL1151009, “Synthesis and pharmacological evaluation of combined Thromboxane receptor antagonists/thromboxane synthase inhibitors: Pyridine-containing amino-prostanoids” (Bioorg Med Chem Lett, 1991)
pIC50: −log10 of the molar value.

Key:
[1] = target: T1, Thromboxane A2 receptor (Rattus norvegicus, UniProt P34978); test: In vitro thromboxane A2 receptor antagonism through inhibition of U-46619-induced contraction of rat isolated thoracic aortic strip; assay type: functional; conditions: read-out: pA2 (converted)
T1 sequence (P34978 whole entry): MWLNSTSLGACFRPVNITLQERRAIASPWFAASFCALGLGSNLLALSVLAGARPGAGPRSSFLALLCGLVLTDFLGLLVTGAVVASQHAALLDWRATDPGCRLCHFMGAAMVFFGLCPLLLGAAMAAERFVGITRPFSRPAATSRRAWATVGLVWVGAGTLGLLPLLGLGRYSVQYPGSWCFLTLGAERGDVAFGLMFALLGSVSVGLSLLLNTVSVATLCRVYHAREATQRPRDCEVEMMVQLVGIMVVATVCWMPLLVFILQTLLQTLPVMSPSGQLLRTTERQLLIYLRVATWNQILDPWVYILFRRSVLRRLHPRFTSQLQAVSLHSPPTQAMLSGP

[2] = target: T2, Thromboxane-A synthase (Homo sapiens, UniProt P24557); test: In vitro TXA2 synthase antagonism through inhibition of collagen induced thromboxane-A2 production in human citreated whole blood; assay type: functional, tissue-based
T2 sequence (P24557 whole entry): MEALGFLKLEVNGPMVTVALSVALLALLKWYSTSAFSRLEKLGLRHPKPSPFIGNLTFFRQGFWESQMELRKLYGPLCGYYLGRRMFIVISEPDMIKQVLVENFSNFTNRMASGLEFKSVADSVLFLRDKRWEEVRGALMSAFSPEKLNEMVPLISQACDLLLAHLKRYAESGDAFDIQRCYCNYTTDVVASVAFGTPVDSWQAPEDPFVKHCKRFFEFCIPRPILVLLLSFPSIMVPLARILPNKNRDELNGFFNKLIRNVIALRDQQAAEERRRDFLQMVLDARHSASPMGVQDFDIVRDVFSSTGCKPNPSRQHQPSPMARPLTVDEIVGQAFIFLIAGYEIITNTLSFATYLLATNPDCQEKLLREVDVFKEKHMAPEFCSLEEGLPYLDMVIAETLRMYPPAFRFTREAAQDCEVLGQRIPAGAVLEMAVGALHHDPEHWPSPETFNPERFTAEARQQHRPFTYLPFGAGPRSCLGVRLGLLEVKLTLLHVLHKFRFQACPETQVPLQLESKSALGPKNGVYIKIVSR

[3] = target: T3, Thromboxane A2 receptor (Homo sapiens, UniProt P21731); test: In vitro thromboxane A2 receptor antagonism through inhibition of U-46619-induced platelet aggregation in human whole blood.; assay type: functional, tissue-based; conditions: read-out: pA2 (converted)
T3 sequence (P21731 whole entry): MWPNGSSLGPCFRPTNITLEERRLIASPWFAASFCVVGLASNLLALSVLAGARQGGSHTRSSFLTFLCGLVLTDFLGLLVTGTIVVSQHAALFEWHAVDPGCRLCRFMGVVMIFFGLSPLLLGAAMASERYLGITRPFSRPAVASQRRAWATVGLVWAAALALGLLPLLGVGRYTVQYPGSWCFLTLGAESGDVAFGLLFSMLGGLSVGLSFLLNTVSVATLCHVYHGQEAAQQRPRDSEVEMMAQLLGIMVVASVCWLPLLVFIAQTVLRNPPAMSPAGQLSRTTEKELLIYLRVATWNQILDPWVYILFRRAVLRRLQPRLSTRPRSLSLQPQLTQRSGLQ

Kb [1] [nM] | pIC50 [2] | Kb [3] [nM] | Structure (SMILES)
31.6 | 7.00 | 2.51 | CCCc1ccncc1-c1ccc(CO[C@@H]2CC[C@H](N3CCCCCC3)[C@H]2OC/C=C\CCC(=O)O)cc1
12.6 | 5.80 | 3.16 | O=C(O)CC/C=C\CO[C@H]1[C@H](OCc2ccc(-c3cnccc3CO)cc2)CC[C@@H]1N1CCCCCC1
20 | 5.80 | 6.31 | Cc1cnccc1-c1ccc(CO[C@@H]2CC[C@H](N3CCCCCC3)[C@H]2OC/C=C\CCC(=O)O)cc1
3.16 | < 5.00 | 3.16 | CC(C)(C)c1ccncc1-c1ccc(CO[C@@H]2CC[C@H](N3CCCCCC3)[C@H]2OC/C=C\CCC(=O)O)cc1
31.6 | 7.00 | 2.51 | Cc1ccncc1-c1ccc(CO[C@@H]2CC[C@H](N3CCCCCC3)[C@H]2OC/C=C\CCC(=O)O)cc1
15.8 | 6.40 | 6.31 | CCc1cnccc1-c1ccc(CO[C@@H]2CC[C@H](N3CCCCCC3)[C@H]2OC/C=C\CCC(=O)O)cc1
10 | 5.60 | 1 | CCc1ccncc1-c1ccc(CO[C@@H]2CC[C@H](N3CCCCCC3)[C@H]2OC/C=C\CCC(=O)O)cc1

Second part, the molecule before the results:

Structure (SMILES) | Kb [1] [nM] | pIC50 [2] | Kb [3] [nM]
CCCCc1ccncc1-c1ccc(CO[C@@H]2CC[C@H](N3CCCCCC3)[C@H]2OC/C=C\CCC(=O)O)cc1 | 10 | 7.00 | 3.98
O=C(O)CC/C=C\CO[C@H]1[C@H](OCc2ccc(-c3cncc(CO)c3)cc2)CC[C@@H]1N1CCCCCC1 | 25.1 | < 5.00 | 6.31
O=C(O)CC/C=C\CO[C@H]1[C@H](OCc2ccc(-c3cnccc3CCO)cc2)CC[C@@H]1N1CCCCCC1 | 3.16 | < 5.00 | 3.16
O=C(O)CC/C=C\CO[C@H]1[C@H](OCc2ccc(-c3ccncc3CO)cc2)CC[C@@H]1N1CCCCCC1 | 15.8 | – | 3.16
O=C(O)CC/C=C\CO[C@H]1[C@H](OCc2ccc(-c3cccnc3CO)cc2)CC[C@@H]1N1CCCCCC1 | 3.16 | < 5.00 | 3.16
O=C(O)CC/C=C\CO[C@H]1[C@H](OCc2ccc(-c3ccncc3)cc2)CC[C@@H]1N1CCCCCC1 | 79.4 | 6.20 | 10
O=C(O)CC/C=C\CO[C@H]1[C@H](OCc2ccc(-c3cccnc3)cc2)CC[C@@H]1N1CCCCCC1 | 39.8 | 6.20 | 12.6
O=C(O)CCCC/C=C(\c1ccccc1)c1cccnc1 [(E)-ISBOGREL] | 6310 | – | 15800
O=C(O)CCCCO/N=C(/c1cccnc1)c1cccc(C(F)(F)F)c1 [RIDOGREL] | 1260 | 7.50 | 3980
